Experimental data as given in paper PMC9133036 (Nature Communications, 2022).
Substitutions are numbered along the chain they refer to. Values joined by “and” are separate entries in the source; they are usually repeats but may differ in a detail not shown here. Identical values can stand only once. “Also recorded” adds a separate entry of the source. Like-named read-outs stand apart in the source and are kept apart here.

Columns and labels:
[1] = molecular target: T1, OX2R F227A (Homo sapiens, UniProt O43614, F227A); test: β-arrestin PathHunter assay, OX2R F227A; assay type: cell-based; details: for EC50: β-arrestin recruitment; for beta-arrestin recruitment fold change: F227A, listed as OxB
T1 construct: expressed in transfected cells; host or cells: CHO-K1 stably expressing EA β-arrestin2
T1 sequence (O43614 1-444 F227A): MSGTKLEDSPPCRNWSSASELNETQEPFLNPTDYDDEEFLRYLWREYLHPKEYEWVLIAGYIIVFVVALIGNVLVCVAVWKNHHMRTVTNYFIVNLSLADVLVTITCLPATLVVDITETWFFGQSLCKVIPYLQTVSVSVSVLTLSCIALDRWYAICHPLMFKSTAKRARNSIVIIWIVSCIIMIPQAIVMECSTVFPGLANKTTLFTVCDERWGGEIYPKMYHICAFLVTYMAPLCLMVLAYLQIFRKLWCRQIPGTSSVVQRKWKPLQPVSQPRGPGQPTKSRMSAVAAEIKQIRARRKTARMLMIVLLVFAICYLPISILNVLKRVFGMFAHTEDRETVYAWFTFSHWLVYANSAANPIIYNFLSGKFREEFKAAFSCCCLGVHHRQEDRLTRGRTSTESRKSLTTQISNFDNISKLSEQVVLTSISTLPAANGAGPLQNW
Experimental: β-Arrestin recruitment activity was measured by using the PathHunter system (DiscoveRX) according to the manufacturer’s instruction. Receptor constructs used were the full-length wild-type (or mutant) human OX2R sequences cloned into pCMV-ProLink (DiscoveRX). CHO-K1 cells stably expressing EA β-arrestin2 (DiscoveRX) were plated on 384 well white plates (Thermo Fisher) at 4000 cells/well in HamF12 (Wako Pure Chemical Industries) supplemented with 10% fetal bovine serum (Corning) and penicillin-streptomycin (Wako Pure Chemical Industries) and incubated overnight at 37 °C under 5% CO2. Cells were transfected with plasmids encoding wild type or each mutant ProLink-tagged human OX2R using FuGENE HD (Promega). […] Detection reagent was added and incubated for 1 h at room temperature. Luminescent signal was detected using an EnVision plate reader (PerkinElmer). β-arrestin assays on different constructs were performed in two or three independent experiments (each done in quadruplicate). Dose response curves (shown in Supplementary Fig. 8) were fitted to the three-parameter model ‘log(agonist) vs response’ in GraphPad Prism to determine pEC50 values.

[2] = molecular target: T2, human OX2R (Homo sapiens, UniProt O43614); test: Inhibition of forskolin-stimulated cAMP production (Gi signaling), OX2R + Gαi1; assay type: cell-based; details: for stimulation of Gi1 as reduction in cAMP levels after forskolin treatment: HEK293 cells transfected with OX2R and Gαi1; for % Forskolin stimulation: OX2R + Gi
T2 construct: expressed in transfected cells; host or cells: HEK293
T2 sequence (O43614 1-444): T1 sequence (O43614 1-444 F227A) with A227F
Experimental: To measure Gi signaling[67], HEK293 cells were transfected with pGloSensor™−22F cAMP Plasmid (Promega) and CMV expression plasmid encoding human OX2R. To enhance the signal for the cAMP assay, we co-transfected a Gi expression plasmid (CMV-driven) in which the full-length human Gαi1 subunit sequence was cloned into pcDNA3. The following day, cells were harvested and washed with assay buffer, HBSS with 20 mM HEPES pH 7.4 (Millipore Sigma). Cells were suspended in assay buffer containing 0.5 mg/ml Luciferin (Gold Biotechnology) and plated on 96 well tissue culture-treated white plates with opaque bottoms (Thermo Fisher). The cells were incubated at 37 °C for 90 min. Forskolin (Millipore Sigma) diluted in assay buffer was added to wells for a final concentration of 5 mM. Luminescence was read at room temperature repeatedly in a CLARIOstar microplate reader (BMG Labtech) until the signal stopped increasing. Agonist diluted in assay buffer was added from a 7X stock and again the plates were read repeatedly until the signal was stable.

COC(=O)N1CCC[C@H](NS(C)(=O)=O)[C@@H]1CO[C@H]1CC[C@@H](c2ccccc2)CC1 [TAK-925, methyl (2R,3S)−3-[(methylsulfonyl)amino]−2-{[(cis−4-phenylcyclohexyl)oxy]methyl}piperidine-1-carboxylate]
EC50 ([1]; read-out: EC50): > 30 µM
EC50 ([1]; read-out: pEC50 (converted)): > 30.2 µM
stimulation of Gi1 as reduction in cAMP levels after forskolin treatment [2]: poor ability to stimulate Gi1; also recorded: minimal diminution of cAMP signal
% Forskolin stimulation ([2]; log [Agonist] -5.00): 72.69% and 86.21% and 88.94%
% Forskolin stimulation ([2]; log [Agonist] -5.52): 88.35% and 93.40% and 97.54%
% Forskolin stimulation ([2]; log [Agonist] -6.00): 94.60% and 96.68% and 103.97%
% Forskolin stimulation ([2]; log [Agonist] -6.52): 100.56% and 102.28% and 109.64%
% Forskolin stimulation ([2]; log [Agonist] -7.00): 100.76% and 107.19% and 105.95%
% Forskolin stimulation ([2]; log [Agonist] -7.52): 105.87% and 108.11% and 120.96%
% Forskolin stimulation ([2]; log [Agonist] -8.00): 107.95% and 108.44% and 107.03%
% Forskolin stimulation ([2]; log [Agonist] -8.52): 103.47% and 109.30% and 118.87%

orexin B
beta-arrestin recruitment fold change ([1]; OxB concentration -6.00 (log, M)): 9.362 fold and 8.115 fold and 7.068 fold and 6.668 fold
beta-arrestin recruitment fold change ([1]; OxB concentration -6.52 (log, M)): 5.797 fold and 5.207 fold and 4.992 fold and 3.983 fold
beta-arrestin recruitment fold change ([1]; OxB concentration -7.00 (log, M)): 2.141 fold and 2.264 fold and 1.690 fold and 2.115 fold
beta-arrestin recruitment fold change ([1]; OxB concentration -7.52 (log, M)): 0.997 fold and 1.239 fold and 0.840 fold and 1.032 fold
beta-arrestin recruitment fold change ([1]; OxB concentration -8.00 (log, M)): 0.797 fold and 0.852 fold and 0.855 fold and 0.772 fold
beta-arrestin recruitment fold change ([1]; OxB concentration -8.52 (log, M)): 0.707 fold and 0.923 fold and 0.738 fold and 0.787 fold
beta-arrestin recruitment fold change ([1]; OxB concentration -9.00 (log, M)): 0.670 fold and 0.812 fold and 0.735 fold and 0.836 fold
beta-arrestin recruitment fold change ([1]; OxB concentration -10.00 (log, M)): 0.813 fold and 0.979 fold and 0.709 fold and 0.989 fold
stimulation of Gi1 as reduction in cAMP levels after forskolin treatment [2]: poor ability to stimulate Gi1; also recorded: minimal diminution of cAMP signal
% Forskolin stimulation ([2]; log [Agonist] -5.00, listed as OXB): 62.35% and 75.49% and 85.20%
% Forskolin stimulation ([2]; log [Agonist] -5.52, listed as OXB): 65.51% and 74.64% and 79.34%
% Forskolin stimulation ([2]; log [Agonist] -6.00, listed as OXB): 67.69% and 72.61% and 81.55%
% Forskolin stimulation ([2]; log [Agonist] -6.52, listed as OXB): 83.40% and 83.94% and 91.79%
% Forskolin stimulation ([2]; log [Agonist] -7.00, listed as OXB): 104.15% and 101.20% and 102.30%
% Forskolin stimulation ([2]; log [Agonist] -7.52, listed as OXB): 105.47% and 101.46% and 103.50%
% Forskolin stimulation ([2]; log [Agonist] -8.00, listed as OXB): 105.90% and 100.54% and 102.29%
% Forskolin stimulation ([2]; log [Agonist] -8.52, listed as OXB): 101.42% and 105.57% and 98.48%
